In brackets after ≈: the same amount, converted by molar mass.
Key:
[1] = system: Candida auris strain AR Bank #384 (K); assay: MIC determination by in vitro antifungal assay; assay type: cell-based; details: Candidozyma auris, C. auris AR Bank # 384 (K) (Table 2B); read-out: MIC
Method: (§1) The antifungal agent amphotericin B (AmB) was purchased from VWR (Radnor PA, USA). AmB was dissolved in DMSO at a final concentration of 5 mg/mL and was stored at −20° C., protected from light. Candida albicans American Type Culture Collection (ATCC) 10231 (strain A), C. albicans ATCC 64124 (B), and C. albicans ATCC MYA-2876 (C) were obtained from Utah State University. C. albicans ATCC 90819 (D), C. albicans ATCC MYA-2310 (E), C. albicans ATCC MYA-1237 (F), C. albicans ATCC MYA-1003 (G), Candida glabrata ATCC 2001 (H), Candida krusei ATCC 6258 (I), Candida parapsilosis ATCC 22019 (J), Cryptococcus neoformans ATCC MYA-895 (M), Aspergillus terreus ATCC MYA-3633 (N), and Aspergillus flavus ATCC MYA-3631 (0) were obtained from the American Type Culture Collection (ATCC; Manassas, VA, USA). Aspergillus nidulans ATCC 38163 (P) was obtained from University of Kentucky. Clinically derived Aspergillus fumigatus NRRL 163 (Q), A. fumigatus NRRL 5109 (R), and A. fumigatus NRRL 6113 (S) were obtained from Northern Regional Research Laboratory (NRRL). Candida auris 384 (K), C. auris 390 (L), and fungal strains 381-400 (including 10 C. auris (AR Bank #381-390), 3 Candida duobushaemulonii (AR Bank #391, AR Bank #392, and AR Bank #394), 2 Candida haemulonii (AR Bank #393 and AR Bank #395), 1 Kodameae ohmeri (AR Bank #396), 1 C. krusei (AR Bank #397), 1 Candida lusitaniae (AR Bank #398), and 2 Saccharomyces cerevisiae strains (AR Bank #399 and AR Bank #400)) were part of a larger fungal library from the AR Bank maintained by the Centers for Disease Control and Prevention (CDC; Atlanta, GA, USA). Filamentous fungi and yeasts were cultivated at 35° C. in RPMI 1640 medium (with L-glutamine, without sodium bicarbonate, Sigma-Aldrich, St. Louis, MO) buffered to a pH of 7.0 with 0.165 M morpholinepropanesulfonic acid (MOPS) buffer (Sigma-Aldrich). For cytotoxicity assays, HepG2 and the mouse macrophage cell line J774A.1 were obtained from University of Kentucky. The human embryonic kidney cell line, HEK-293, was bought from the ATCC. Mammalian cells were grown in Dulbecco's Modified Eagle's Medium (DMEM) (from VWR) with 10% fetal bovine serum (FBS) (from VWR) and 1% Pen/Strep (from ATCC). Cell lines were cultured at 37° C. with 5% CO2 and passaged by trypsinization with 0.05% trypsin: 0.53 mM EDTA (from Sigma-Aldrich).
(§2) From the actively growing yeast culture, 100 µL were then transferred to 900 μL of RPMI 1640 medium and re-adjusted to achieve OD600 of 0.12 (˜1×10^6 CFU/mL). The cell suspension was further diluted to achieve 1:100 in RPMI 1640 medium.
(§3) Finally, the activity of these monohydrazides was explored against […] non-Candida strains: Cryptococcus neoformans ATCC MYA-895 (M), Aspergillus terreus ATCC MYA-3633 (N), Aspergillus flavus ATCC MYA-3631 (O), Aspergillus nidulans ATCC 38163 (P), Aspergillus fumigatus NRRL 163 (Q), A. fumigatus NRRL 5109 (R), and A. fumigatus NRRL 6113 (S) (Tables 1A and 1B). The double dilution method was used with concentrations ranging from 0.06 to 31.3 j·tg mL^−1 for monohydrazides 1a-9j, and the commercially available positive antifungal control amphotericin B (AmB).

[2] = system: C. auris strain AR Bank #390 (L); assay: MIC determination by in vitro antifungal assay; assay type: cell-based, Candida auris; details: Candidozyma auris, C. auris AR Bank # 390 (L) (Table 2B); read-out: MIC
Method: as §1, §2, §3

C. auris AR Bank #381 = assay: MIC determination by in vitro antifungal assay; assay type: cell-based, Candida auris; details: Candidozyma auris; C. auris AR Bank # 381 (Table 2B); read-out: MIC
Method: as §1, §2

C. auris AR Bank #382 = assay: MIC determination by in vitro antifungal assay; assay type: cell-based, Candida auris; details: Candidozyma auris; C. auris AR Bank # 382 (Table 2B); read-out: MIC
Method: as §1, §2

C. auris AR Bank #383 = assay: MIC determination by in vitro antifungal assay; assay type: cell-based, Candida auris; details: Candidozyma auris; C. auris AR Bank # 383 (Table 2B); read-out: MIC
Method: as §1, §2

C. auris AR Bank #385 = assay: MIC determination by in vitro antifungal assay; assay type: cell-based, Candida auris; details: Candidozyma auris; C. auris AR Bank # 385 (Table 2B); read-out: MIC
Method: as §1, §2

C. auris AR Bank #386 = assay: MIC determination by in vitro antifungal assay; assay type: cell-based, Candida auris; details: Candidozyma auris; C. auris AR Bank # 386 (Table 2B); read-out: MIC
Method: as §1, §2

C. auris AR Bank #387 = assay: MIC determination by in vitro antifungal assay; assay type: cell-based, Candida auris; details: Candidozyma auris; C. auris AR Bank # 387 (Table 2B); read-out: MIC
Method: as §1, §2

C. auris AR Bank #388 = assay: MIC determination by in vitro antifungal assay; assay type: cell-based, Candida auris; details: Candidozyma auris; C. auris AR Bank # 388 (Table 2B); read-out: MIC
Method: as §1, §2

C. auris AR Bank #389 = assay: MIC determination by in vitro antifungal assay; assay type: cell-based, Candida auris; details: Candidozyma auris; C. auris AR Bank # 389 (Table 2B); read-out: MIC
Method: as §1, §2

[3] = system: panel of ten C. auris strains (AR Bank #381-390); assay: MIC determination, summary over the C. auris panel; assay type: cell-based, Candida auris; details: Candidozyma auris; against all ten C. auris strains tested (AR Bank #381-390)
Method: as §1, §2

In the case of COc1cccc(NNC(=O)c2cccc(F)n2)c1 [Compound 5c], the MIC [1] is reported as 0.49 µg/mL (≈ 1.88 µM), the MIC [2] is reported as 3.9 µg/mL (≈ 14.9 µM) and the MIC (C. auris AR Bank #381) is reported as 0.98 µg/mL (≈ 3.75 µM). The MIC (C. auris AR Bank #382) was 0.49 µg/mL (≈ 1.88 µM), the MIC (C. auris AR Bank #383) was 1.95 µg/mL (≈ 7.46 µM) and the MIC (C. auris AR Bank #385) was 0.98 µg/mL (≈ 3.75 µM). The MIC (C. auris AR Bank #386) was 0.98 µg/mL (≈ 3.75 µM), the MIC (C. auris AR Bank #387) was 0.49 µg/mL (≈ 1.88 µM) and the MIC (C. auris AR Bank #388) was 0.98 µg/mL (≈ 3.75 µM). The MIC (C. auris AR Bank #389) was 0.98 µg/mL (≈ 3.75 µM) and the MIC [3] was 0.12 to 7.8 µg/mL (≈ 0.459 to 29.9 µM).

— patent US20240425464A1, “Substituted Monohydrazides as Potent Antifungal Agents” (University of Kentucky Research Foundation, priority 2023, published 2024)
